Consider one compound from patent publication US7892350B2, “Sacrificial agents for fly ash concrete” (Boral Material Technologies Inc., priority 2003, dated 2011).

A short description of data set [1]: Paste air entrainment, Minimum air protocol. As to the method:
(§1) Preparation of pastes: Pastes were prepared by pouring 400 g of cementitious powder in the 350-400 g of solution (water and additives) in a vessel (8.4 cm dia,×14.5 cm height) while gently stirring with a spatula; the exact quantity of water depends on the selected W/B ratio (see below); rapid hand mixing was continued for 1 minute, followed by intense stirring at 25° C. during 2 min using a hand-held mixer (BRAUN model MR400). The level of air entrained is dependent on the mode of utilisation of the mixer, namely the height of the mixer from the bottom of the vessel and the length of the mixing stroke; the following protocols were adopted.
Minimum air protocol: The BRAUN mixer is positioned at 1.0 inch from the bottom of the mixing vessel and the up-down motion of the mixer is limited to a 1.0 inch displacement; this provided ‘minimum air’ entrained air levels and is later referred to as ‘Minimum air protocol’ (Results reported in Table 6, col. 1 and Table 7).
(§2) Fluidity measurements: For all air entrainment measurements, the initial fluidity of the paste (without additives) was controlled using the ‘mini-slump’ procedure widely used for paste and grouts. In this protocol, a portion of the paste was transferred into the min-slump cone (a 2¼″ high, 1½″ bottom diameter, ¾″ top diameter cone); excess paste was skimmed-off with a straight; the cone was then raised and the spread diameter of the paste was recorded (average of two measurements). The fluidity is measured at 10 minutes after mixing. The paste is returned to the batch and reserved for subsequent AE measurements. The fluidity of the paste (without SA and AEA) is adjusted by changing the amount of water (water/cementitious ratio) which yields a spread diameter of 115±5 mm. The latter is monitored regularly.
(§3) Air entrainment measurements: For air entrainment measurements, a portion of the paste was transferred to overfill a Plexiglas cylinder (3¾ inches height, 2 inches interior diameter), which was then levelled flush to the top of the cylinder with a straight edge. The mass of the filled cylinder, minus the weight of the empty cylinder, is then recorded and used to calculate the amount of air according to the following formula: […]
(§4) This procedure was carried out at three times at 30 min. intervals (6, 36 and 66 min); the paste was let to stand at rest between measurements, and was stirred gently by hand for one minute prior to the subsequent air entrainment measurements.
Typical mixture compositions for air entrainment measurements in pastes containing a single additive using ‘Minimum air protocol’ (results shown in Table 6, col. 1): […]

A short description of data set [2]: Adsorption/precipitation of SA or AEA in 10 wt % aqueous fly ash or cement slurries at pH 12.5. The data set is classed as physicochemical. Conditions: initial SA 3 mM. How it is done: Adsorption/Precipitation of Sacrificial Agents (SA) or Air Entrainment Agents (AEA) in 10 wt % Aqueous Fly Ash Slurries at pH 12.5:
(§5) The pH of the solutions were adjusted to 12.5 with NaOH.
Adsorption/Precipitation in FA or Cement Slurries: In this protocol, aqueous slurries containing 10 wt % FA or cement were prepared as described above, except that in this case, the cement was added directly into a solution of the SA or AEA in the following proportions: 3.0 g cement or FA, and 27 g of 3 mM sacrificial agent, or 27 g of 1050 mg/l AEA; the latter were prepared in the same way as in the precipitation test above. The residual (soluble) SA or AEA content in the solution was also determined by UV or COD.

Data set [3] is described as follows: Precipitation in slurry extract or leachate. The data set is classed as physicochemical. Conditions: pH 12.5, entries in parentheses. How it is done: as §5
Precipitation in slurry extract or leachate: To perform this test, FA or cement leachate were prepared in advance, by filtering two liters of a 10 wt % FA, or cement, slurry in 0.03N NaOH which had been left to stand under slow agitation for 30 min; 2.5 g of the filtrate solution was mixed with 22.5 g of the SA or AEA solution in a 50 ml polypropylene centrifuge tube; the latter was shaken vigorously in an orbital shaker (Eberbach Corporation) for 30 min at room temperature, centrifuged for 5 min and then the supernatant solution was filtered (0.45 μm). The SA or AEA content of the solution was determined using an Ultraviolet-Visible (UV) spectrometer or by COD (Chemical Oxygen Demand) measurement.
Entries in parentheses: % precipitation when reacted with solutions extracted from the fly ash slurries (Results in Table 5).

Data set [4] can be described thus: Paste air entrainment, Maximum air protocol. Conditions: PCA cement paste; 0.0125% SA or AEA alone; Maximum air protocol. As to the method:
as §1, §2, §3, §4
Other combinations of air entrainment agents and sacrificial agents were prepared as stock solutions following the procedure outlined above, adjusting the weights of the various components to achieve the desired component ratios.

For the compound `O=C([O-])c1cccc2ccccc12.[Na+]` [NA, 1-Naphthoic acid sodium salt], the Air entrained in data set [1] (50:50 fly ash B1 (LOI 4.36%):PCA paste, 0.1 wt % Air 30 alone or with 0.05 wt % of the SA) is on record as 4 vol %; in data set [1] (50:50 fly ash C1 (LOI 1.62%):PCA paste, 0.1 wt % Air 30 alone or with 0.05 wt % of the SA), 5 vol %; in data set [1] (50:50 fly ash D (LOI […]):PCA paste, 0.1 wt % Air 30 alone or with 0.05 wt % of the SA), 6 vol %; in data set [1] (50:50 fly ash M1 (LOI […]):PCA paste, 0.1 wt % Air 30 alone or with 0.05 wt % of the SA) it was 6 vol %; in data set [1] (50:50 fly ash M2 (LOI 5.34%):PCA paste, 0.1 wt % Air 30 alone or with 0.05 wt % of the SA), 4 vol %; in data set [1] (50:50 fly ash M3 (LOI 11.33%):PCA paste, 0.1 wt % Air 30 alone or with 0.05 wt % of the SA), 5 vol %. Besides, the Air entrained in data set [1] (50:50 fly ash R (LOI […]):PCA paste, 0.1 wt % Air 30 alone or with 0.05 wt % of the SA) was 4 vol %; in data set [1] (PCA cement paste, 0.1% SA or AEA alone, Minimum air protocol) it was 0 vol %; in data set [4], 0 vol %. In data set [1] (over the fly ash:PCA pastes of Table 7, 0.1 wt % Air 30 alone or with 0.05 wt % of the SA), the “Average of air entrained” value is listed as 5%. Also, the “Adsorption (wt % Adsorbed)” value in data set [2] (10 wt % fly ash B1 (LOI 4.36%) slurry, Air 30/Air 40 0.105 wt %) came out at 9 wt %; in data set [2] (10 wt % fly ash C1, class C (LOI 1.62%) slurry, Air 30/Air 40 0.105 wt %) it was 61 wt %; in data set [2] (10 wt % fly ash C2 (LOI 3.32%) slurry), 4 wt %; in data set [2] (10 wt % fly ash M1 (LOI […]) slurry, Air 30/Air 40 0.105 wt %) it was 90 wt %; in data set [2] (10 wt % fly ash M2 (LOI 5.34%) slurry, Air 30/Air 40 0.105 wt %) it was 9 wt %; in data set [2] (10 wt % fly ash M3 (LOI 11.33%) slurry, Air 30/Air 40 0.105 wt %), 12 wt %. The “Adsorption (wt % Adsorbed)” value in data set [2] (10 wt % fly ash N (LOI 0.30%) slurry) worked out at 20 wt %. Also, the “Precipitation (wt % precipitated)” value came to 0 wt % in data set [3] (solution extracted from 10 wt % fly ash B1 (LOI 4.36%) slurry); 0 wt % in data set [3] (solution extracted from 10 wt % fly ash C1, class C (LOI 1.62%) slurry); 0 wt % in data set [3] (solution extracted from 10 wt % fly ash C2 (LOI 3.32%) slurry); 80 wt % in data set [3] (solution extracted from 10 wt % fly ash M1 (LOI […]) slurry); 0 wt % in data set [3] (solution extracted from 10 wt % fly ash M2 (LOI 5.34%) slurry); 0 wt % in data set [3] (solution extracted from 10 wt % fly ash M3 (LOI 11.33%) slurry). In data set [3] (solution extracted from 10 wt % fly ash N (LOI 0.30%) slurry), the “Precipitation (wt % precipitated)” value was found to be 0 wt %.
